Experimental data taken from paper PMC3715522, “Characterization of Fructose-1,6-Bisphosphate Aldolase during Anoxia in the Tolerant Turtle, Trachemys scripta elegans: An Assessment of Enzyme Activity, Expression and Structure” (PLoS ONE, 2013).

System: T1, turtle liver aldolase (ALDOA/ALDOB, suggested heterotetramer)
T1 construct: native, purified from liver of normoxic adult females (DEAE+, two Cibacron Blue steps); ~37 kDa subunit
Test: coupled NADH assay (alpha-glycerophosphate dehydrogenase / triose phosphate isomerase), […] nm
Format: biochemical, Trachemys scripta elegans
Conditions: enzyme from normoxic liver; 100 mM KPi pH 7.2, 10 mM EDTA, 25 °C; A/B isoenzyme mixture or heterotetramer

| Km [mM] | SMILES |
| --- | --- |
| ~14 | O=P(O)(O)OCC1(O)O[C@H](CO)[C@@H](O)[C@@H]1O (some centres unmarked) [F1P, fructose-1-phosphate] |
| 0.00024 ± 3e-05 | O=P(O)(O)OC[C@H]1OC(O)(COP(=O)(O)O)[C@@H](O)[C@@H]1O (some centres unmarked) [FBP, fructose-1,6-bisphosphate] |
